In patent US20260373165A1, “PHARMACEUTICAL COMBINATIONS AND COMPOSITIONS, AND METHODS OF USE THEREOF” (SHENZHEN HIGHTIDE BIOPHARMACEUTICAL LTD., priority 2022, published 2026):
“Also recorded” adds a separate entry of the source.

Columns and labels:
Assay type in all cases: in vivo, mouse (C57BL/6J male, 60% HFD DIO)
[1] = Example 2: lean mass by MRI on day 23
From the text: (§1) After 5-6-week-old C57BL/6J male mice were acclimatized for 1 week, the weight of each mouse was weighed, and the mice were randomly divided into a control group and a model group by taking the weight as a main index, where 12 mice in the control group were fed with common feed (CD), and the mice in the remaining model group were fed with 60% high-fat feed (60% HFD) for 10-12 weeks to construct a DIO obesity model, with the average body weight being not less than 40 g. The mice fed with 60% HFD were grabbed and acclimatized with a solvent for 3 days, where the acclimatization with a solvent was performed by oral gavage of 0.5% CMC-Na, once daily.
(§2) The food intake, the body weight, the body fat ratio, and the insulin level of the mice were respectively measured, followed by fasting blood glucose level, and the mice were randomly grouped according to Table 12 by taking the body weight as an index, and the remaining ungrouped mice were euthanized. After grouping, each group of mice was administered according to Table 12, the day of administration was defined as DO, and the administration volume of each drug was determined based on the results obtained by the calculation of 5 μL/g× mouse body weight (g).
(§3) For the combined administration group, the administration sequence and the administration time were kept consistent at each administration. The mice were continuously fed with high-fat feed during the administration period until the administration was finished. During administration, 1 food intake was measured per week (difference in feed weights at an interval of 24 h was measured); each group of mice was weighed once daily; blood was collected from the tail tip on day 16 and day 30, respectively, so as to measure fasting blood glucose levels once (blood was collected after fasting from 9:00 am to 3:[…]); on day 24 of administration (D23), the body fat ratio and the lean mass of each group of mice were measured by MRI (the measurement period was kept consistent with that before grouping); after 25 days of administration intervention (day 24), each group of mice was fasted for 6 h and subjected to OGTT (0 min, 15 min, 30 min, 60 min, 90 min, 120 min) to detect their blood glucose levels; after 29 days of administration intervention (day 28), each group of mice was fasted for 6 h and subjected to OGTT (0 min, 15 min, 30 min, 60 min, 90 min, 120 min), and meanwhile subjected to blood sampling via submaxillary vein (0 min, 15 min, 30 min, about 30 μL of blood sampled each time), and then the blood plasma was separated for detecting the insulin level by ELISA, where the separated blood plasma was more than 10 μL; the next day (D30) at the end of administration was set as the test endpoint, and the mice were fasted for 6 h in the morning and subjected to fasting blood glucose level measurement; subsequently, the mice were euthanized with CO2, blood was collected from the heart of each mouse for analysis, and each group of mice was dissected; the liver and subcutaneous, epididymal and mesenteric fat was collected, photographed and weighed, respectively.
The body weight, the lean mass and the lean ratio of each animal in groups G1 to G8 were measured on day 23 and averaged for each group, and the results are shown in Table 16 below, and FIGS. 23 and 24.

[2] = Example 2: body fat mass by MRI on day 23
From the text: as §1, §2, §3
The body weight, the body fat mass and the body fat ratio of each animal in groups G1 to G8 were measured on day 23 and averaged for each group, and the results are shown in Table 15 below, and FIGS. 21 and 22.

[3] = Example 2: body weight and body weight change rate, combined administration of HTD1801 and dapagliflozin or empagliflozin in DIO obesity model; conditions: HTD1801 250 mpk, dapagliflozin 10 mpk, empagliflozin 15 mpk p.o. QD, semaglutide 10 nmol/kg s.c. Q3D
From the text: as §1, §2, §3

[4] = mean, day 23, HTD1801 250 mpk, dapagliflozin 10 mpk, empagliflozin 15 mpk p.o. QD

OC[C@H]1O[C@@H](c2ccc(Cl)c(Cc3ccc(O[C@H]4CCOC4)cc3)c2)[C@H](O)[C@@H](O)[C@@H]1O [Empagliflozin, empagliflozin]
lean ratio (in words) ([1]; day 23, relative to model control group G2): slightly decreased | Body weight ([1]; mean, day 23 (Table 16), HTD1801 250 mpk, dapagliflozin 10 mpk, empagliflozin 15 mpk p.o. QD): 46.8 g | Lean (lean mass) [1, 4]: 4.2 g | Lean ratio [1, 4]: 9.1% | body fat mass and body fat ratio (in words) ([2]; day 23, relative to control group G2): increased | Body weight ([2]; mean, day 23 (Table 15), HTD1801 250 mpk, dapagliflozin 10 mpk, empagliflozin 15 mpk p.o. QD): 46.8 g | Body fat ratio [2, 4]: 49.3% | Fat (body fat mass) [2, 4]: 23.0 g | body weight change / weight loss effect (in words) [3]: basically kept unchanged; also recorded: could not achieve the weight loss effect | Body weight (mean) ([3]; day 0 (baseline)): 46.2 g | Body weight change rate ([3]; day 0 (baseline)): 0.0% | Body weight (mean) ([3]; day 1): 46.3 g | Body weight change rate ([3]; day 1): 0.4% | Body weight (mean) ([3]; day 2): 46.1 g | Body weight change rate ([3]; day 2): −0.2% | Body weight (mean) ([3]; day 3): 46.0 g | Body weight change rate ([3]; day 3): −0.3% | Body weight (mean) ([3]; day 4): 46.0 g | Body weight change rate ([3]; day 4): −0.5% | Body weight (mean) ([3]; day 5): 45.6 g | Body weight change rate ([3]; day 5): −1.3% | Body weight (mean) ([3]; day 6): 45.8 g | Body weight change rate ([3]; day 6): −0.8% | Body weight (mean) ([3]; day 7): 46.0 g | Body weight change rate ([3]; day 7): −0.4% | Body weight (mean) ([3]; day 8): 45.6 g | Body weight change rate ([3]; day 8): −1.2% | Body weight (mean) ([3]; day 9): 45.5 g | Body weight change rate ([3]; day 9): −1.5% | Body weight (mean) ([3]; day 10): 45.4 g | Body weight change rate ([3]; day 10): −1.7% | Body weight (mean) ([3]; day 11): 45.6 g | Body weight change rate ([3]; day 11): −1.2% | Body weight (mean) ([3]; day 12): 45.5 g | Body weight change rate ([3]; day 12): −1.6% | Body weight (mean) ([3]; day 13): 45.3 g | Body weight change rate ([3]; day 13): −1.9% | Body weight (mean) ([3]; day 14): 45.6 g | Body weight change rate ([3]; day 14): −1.3% | Body weight (mean) ([3]; day 15): 45.6 g | Body weight change rate ([3]; day 15): −1.4% | Body weight (mean) ([3]; day 16): 45.3 g | Body weight change rate ([3]; day 16): −1.9% | Body weight (mean) ([3]; day 17): 45.7 g | Body weight change rate ([3]; day 17): −1.1% | Body weight (mean) ([3]; day 18): 45.7 g | Body weight change rate ([3]; day 18): −1.0% | Body weight (mean) ([3]; day 19): 45.7 g | Body weight change rate ([3]; day 19): −1.2% | Body weight (mean) ([3]; day 20): 45.8 g | Body weight change rate ([3]; day 20): −0.8% | Body weight (mean) ([3]; day 21): 46.0 g | Body weight change rate ([3]; day 21): −0.4% | Body weight (mean) ([3]; day 22): 46.2 g | Body weight change rate ([3]; day 22): −0.1% | Body weight (mean) ([3]; day 23): 46.1 g | Body weight change rate ([3]; day 23): −0.1% | Body weight (mean) ([3]; day 24): 45.7 g | Body weight change rate ([3]; day 24): −1.1% | Body weight (mean) ([3]; day 25): 46.0 g | Body weight change rate ([3]; day 25): −0.4% | Body weight (mean) ([3]; day 26): 46.6 g | Body weight change rate ([3]; day 26): 0.9% | Body weight (mean) ([3]; day 27): 46.5 g | Body weight change rate ([3]; day 27): 0.7% | Body weight (mean) ([3]; day 28): 46.0 g | Body weight change rate ([3]; day 28): −0.4% | Body weight (mean) ([3]; day 29): 46.5 g | Body weight change rate ([3]; day 29): 0.8%
